Measured values from PubChem BioAssay (NCI).
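Growth conditions: 96-well plates. Treatment: test compound, 48 hours, 5 concentrations. Analysis: linear interpolation between bracketing concentrations; unreached endpoints set to highest concentration. GI50: concentration for 50% inhibition of growth. TGI: total growth inhibition.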

Assays:
Assay in all cases: inhibition of tumour cell growth, NCI panel, 48 h
786-0 renal = test system: 786-0 renal
HCT-15 colon = test system: HCT-15 colon
KM12 colon = test system: KM12 colon
M14 melanoma = test system: M14 melanoma
NCI-H23 lung = test system: NCI-H23 lung
RPMI-8226 leukemia = test system: RPMI-8226 leukemia
SNB-19 CNS = test system: SNB-19 CNS
SNB-75 CNS = test system: SNB-75 CNS
T-47D breast = test system: T-47D breast
SR leukemia = test system: SR leukemia

SMILES: N#Cc1sc2c(c1OC(=O)c1ccc(C(F)(F)F)cc1)c(=O)n(-c1ccccc1)c(=S)n2-c1ccccc1
- TGI (786-0 renal): > 100 µM
- TGI (HCT-15 colon): 80.7 µM
- TGI (KM12 colon): > 100 µM
- TGI (M14 melanoma): 81.7 µM
- TGI (NCI-H23 lung): > 100 µM
- TGI (RPMI-8226 leukemia): 45.9 µM
- TGI (SNB-19 CNS): > 100 µM
- TGI (SNB-75 CNS): 85.7 µM
- TGI (T-47D breast): > 100 µM

SMILES: CC1(C)CCc2c(ccc(C(=O)/C=C/c3ccc(O)cc3)c2O)O1
- TGI (HCT-15 colon): 20.5 µM
- TGI (M14 melanoma): 20.7 µM
- TGI (NCI-H23 lung): 22.7 µM
- TGI (RPMI-8226 leukemia): 20.8 µM
- TGI (SNB-19 CNS): 25.8 µM
- TGI (SR leukemia): 30.5 µM
- TGI (T-47D breast): 21 µM

SMILES: COc1ccc(/C=N/NC(=O)c2ccc(O)c(CN(C)C)c2)cc1
- TGI (786-0 renal): > 100 µM
- TGI (HCT-15 colon): > 100 µM
- TGI (KM12 colon): > 100 µM
- TGI (M14 melanoma): > 100 µM
- TGI (NCI-H23 lung): > 100 µM
- TGI (SNB-19 CNS): > 100 µM
- TGI (SR leukemia): > 100 µM
- TGI (T-47D breast): > 100 µM

SMILES: CO/N=C(/C(=O)OC)c1ccccc1COc1ccccc1C(F)(F)F
- TGI (786-0 renal): > 100 µM
- TGI (HCT-15 colon): > 100 µM
- TGI (KM12 colon): > 100 µM
- TGI (M14 melanoma): > 100 µM
- TGI (NCI-H23 lung): > 100 µM
- TGI (RPMI-8226 leukemia): 50.3 µM
- TGI (SNB-19 CNS): > 100 µM
- TGI (SR leukemia): 79.2 µM
- TGI (T-47D breast): > 100 µM

SMILES: COC1OC2COC(c3ccccc3)OC2C(O)C1OC(=S)c1ccccc1 (stereo unspecified)
- TGI (HCT-15 colon): > 100 µM
- TGI (M14 melanoma): > 100 µM
- TGI (NCI-H23 lung): > 100 µM
- TGI (RPMI-8226 leukemia): 36.5 µM
- TGI (SNB-19 CNS): > 100 µM
- TGI (SR leukemia): 85.5 µM
- TGI (T-47D breast): 85 µM

SMILES: COc1cc2c(cc1OCCCCCN1CCN(c3ncnc4ccccc34)CC1)N=CC1CCCN1C2=O (stereo unspecified)
- GI50 (HCT-15 colon): 0.206 µM
- TGI (HCT-15 colon): 4.09 µM
- GI50 (KM12 colon): 0.0289 µM
- TGI (KM12 colon): 0.952 µM
- GI50 (M14 melanoma): 0.032 µM
- TGI (M14 melanoma): 0.128 µM
- GI50 (NCI-H23 lung): 0.0342 µM
- TGI (NCI-H23 lung): 0.196 µM
- GI50 (RPMI-8226 leukemia): < 0.0138 µM
- TGI (RPMI-8226 leukemia): 0.035 µM
- GI50 (SNB-19 CNS): 0.0333 µM
- TGI (SNB-19 CNS): 3.53 µM
- GI50 (SNB-75 CNS): 0.0168 µM
- TGI (SNB-75 CNS): 0.0823 µM
- GI50 (T-47D breast): 0.0139 µM
- TGI (T-47D breast): 0.0428 µM

SMILES: C=C(C)[C@H]1C2=CC(C(=O)OC)=C(C[C@H](C(=C)C)[C@@H](O)[C@@H](O)C3=C[C@H]1OC3=O)O2
- TGI (786-0 renal): > 100 µM
- TGI (HCT-15 colon): > 100 µM
- TGI (KM12 colon): > 100 µM
- TGI (M14 melanoma): > 100 µM
- TGI (NCI-H23 lung): > 100 µM
- TGI (RPMI-8226 leukemia): > 100 µM
- TGI (SNB-19 CNS): > 100 µM
- TGI (SNB-75 CNS): > 100 µM
- TGI (T-47D breast): > 100 µM

SMILES: O=C(c1ccccc1)c1ccc2c(c1)NC(=O)c1ccccc1SSc1ccccc1C(=O)N2
- TGI (786-0 renal): > 100 µM
- TGI (HCT-15 colon): > 100 µM
- TGI (KM12 colon): > 100 µM
- TGI (M14 melanoma): > 100 µM
- TGI (NCI-H23 lung): > 100 µM
- TGI (RPMI-8226 leukemia): > 100 µM
- TGI (SNB-19 CNS): > 100 µM
- TGI (SR leukemia): > 100 µM
- TGI (T-47D breast): > 100 µM

SMILES: COc1cc2c(cc1OCCCN1C(=O)c3cccc4cccc(c34)C1=O)N=C[C@@H]1CCCN1C2=O
- TGI (786-0 renal): 54.3 µM
- TGI (HCT-15 colon): > 77.9 µM
- TGI (KM12 colon): > 49.8 µM
- TGI (M14 melanoma): > 100 µM
- TGI (NCI-H23 lung): > 100 µM
- TGI (RPMI-8226 leukemia): > 50.2 µM
- TGI (SNB-19 CNS): > 100 µM
- TGI (SR leukemia): 25.5 µM
- TGI (T-47D breast): > 100 µM

SMILES: O=C(OCC(Cl)(Cl)Cl)N1CC[C@H](C2CCCCC2)C1
- TGI (786-0 renal): 33.1 µM
- TGI (HCT-15 colon): 34.8 µM
- TGI (KM12 colon): 31.7 µM
- TGI (M14 melanoma): 39.8 µM
- TGI (NCI-H23 lung): 33.2 µM
- TGI (SNB-19 CNS): 37.5 µM
- TGI (SNB-75 CNS): 35.9 µM
- TGI (SR leukemia): 40.6 µM
- TGI (T-47D breast): 35.1 µM

SMILES: CC1OC(O[C@H]2C3C=CO[C@@H](OC4OC(CO)C(O)C(O)C4O)C3[C@@]3(COC(=O)/C=C/c4ccccc4)O[C@@H]23)C(O)C(O)C1O (stereo partly specified)
- TGI (786-0 renal): > 100 µM
- TGI (HCT-15 colon): > 100 µM
- TGI (KM12 colon): > 100 µM
- TGI (M14 melanoma): > 100 µM
- TGI (NCI-H23 lung): > 100 µM
- TGI (RPMI-8226 leukemia): > 100 µM
- TGI (SNB-19 CNS): > 100 µM
- TGI (SNB-75 CNS): > 100 µM
- TGI (T-47D breast): > 100 µM
